Experimental data: patent US20170319562A1, “Compositions and Methods for Extended Therapy with Aminopyridines” (Acorda Therapeutics, Inc., priority 2009, published 2017)

Tests used:
[1] = system: patients with multiple sclerosis; test: Pooled analysis of MS-F202, MS-F203 and MS-F204; format: in vivo, human; settings: Timed-Walk Responders
Method: The primary efficacy variable was analyzed by comparing 4-aminopyridine-SR 10 mg b.i.d., the now FDA-approved clinical dose, to placebo with respect to the proportion of patients with consistent improvements in walking speed (Timed-Walk Responders).
A set of post-hoc analyses using a traditional definition of response based on threshold change was performed to provide additional evidence of the robustness of the primary analyses using the Timed-Walk Responder criterion. For these analyses, a patient was defined as a “% Responder” at various thresholds of response (at average increases in walking speed during the treatment period of at least 10%, 20%, etc. up to 60% from baseline). Fisher's Exact test was used to compare 4-aminopyridine to placebo for each study and for the pooled analysis.
DesignAVIethods: All patients from MS-F202, MS-F203 and MS-F204 were included in a pooled analysis. Patients with clinically definite multiple sclerosis were randomized to 4-aminopyridine-SR 10 mg bid or placebo for up to 14 weeks. The primary efficacy variable was defined as a faster walking speed on the Timed 25-Foot Walk (T25FW) for at least 3 of 4 double-blind efficacy visits compared with the maximum walking speed on any of 5 off-treatment visits, and was determined prospectively for MS-F203 and MS-F204 and retrospectively in MS-F202. The average Walking Speed (“WS”) over four baseline and four treatment visits were compared by treatment and TWR status.
All patients from MS-F202, MS-F203 and MS-F204 were included in a pooled analysis. Patients with clinically definite multiple sclerosis were randomized to 4-aminopyridine-SR 10 mg bid or placebo for up to 14 weeks. The primary efficacy variable was defined as a faster walking speed on the Timed 25-Foot Walk (T25FW) for at least 3 of 4 double-blind efficacy visits compared with the maximum walking speed on any of 5 off-treatment visits, and was determined prospectively for MS-F203 and MS-F204 and retrospectively in MS-F202.
Methods: Data for patients who received the therapeutic dose of 4-aminopyridine-SR, 10mg bid, in three randomized controlled trials (MS-F202, MS-F203, and MS-F204) were pooled (n=394) and compared to placebo (n=237). Comparative analyses were based on the percent change from baseline in WS using the timed 25-foot walk. […] The percent change in WS for the pooled populations for each double-blind visit was evaluated by time interval to account for differences in study schedules (Days 1-21, 22-49, 50-77, and 78-end of double-blind phase). The percent changes were analyzed with analysis of variance with effects for treatment group, study, and site within study.

[2] = system: patients with multiple sclerosis; test: MS-F202EXT open-label extension study; format: in vivo, human; settings: for patients classified as Extension Timed Walk Responders: cut-off Jul. 31, 2008
Method: (§1) Data were presented by study pair (parent and extension).
In the MS-F202EXT study, which started recruiting patients several months after the completion of the parent study, patients were required to undergo a screening visit prior to dispensing of open-label 4-aminopyridine-SR. The study began with the potential to titrate the dose upward to a maximum of 20 mg b.i.d. with titration visits at weekly intervals. A number of protocol amendments decreased the maximum dose to 15 and then to 10 mg b.i.d. and changed the planned visit intervals, but in the current amended protocol, both the dose (10 mg b.i.d.) and the interval between visits (26 weeks) has been made consistent with MS-F203EXT.
(§2) This Example considers efficacy data collected from the three ongoing, open label extension studies (MS-F202EXT, MS-F203EXT, MS-F204EXT). The primary focus was the Timed 25-Foot Walk, assessed in a manner consistent with its evaluation in the parent double-blind studies. This included the determination of response to treatment using a criterion equivalent to the Timed Walk Response criterion used in the parent studies. […] The clinical meaningfulness of this criterion was evaluated in terms of the Subject and Clinician Global Impression scores recorded during the extension studies.
(§3) In the extension studies, a “Timed Walk Extension Responder” was defined as a patient who achieved a faster walking speed on the T25FW for the majority of on-drug treatment visits during the first year of the study (Visits 1-4 for MS-F203EXT and MS-F204EXT) than the maximum walking speed previously measured for the patient during any off-drug visits in either the parent study or in the extension study.

[3] = system: patients with multiple sclerosis; test: MS-F203EXT open-label extension study; format: in vivo, human; settings: for patients classified as Extension Timed Walk Responders: cut-off Jul. 31, 2008
Method: as §1
In the MS-F203EXT study, which allowed patients to enroll directly from the parent study MS-F203, open-label 4-aminopyridine-SR 10 mg b.i.d. was dispensed at visit 0 (a separate screening visit was only required if the screening visit could not be combined with the Final visit for MS-F203); visit 1 was scheduled to occur two weeks after visit 0, visit 2 at 12 weeks after visit 1, visit 3 at 12 weeks after visit 2. The planned interval between subsequent visits was 26 weeks. Therefore, at visit 4, a patient should have been on 4-aminopyridine-SR treatment for approximately one year.
as §2, §3

[4] = system: patients with multiple sclerosis; test: MS-F204EXT open-label extension study; format: in vivo, human; settings: cut-off Jul. 31, 2008
Method: as §1
In the MS-F204EXT study, which allowed patients to enroll directly from the parent study MS-F204, open label 4-aminopyridine-SR 10 mg b.i.d. was dispensed at visit 0 (a separate screening visit was only required if the screening visit could not be combined with the Final visit for MS-F204); visit 1 was scheduled to occur two weeks after screening visit (or visit 0), visit 2 at 12 weeks after visit 1, visit 3 at 12 weeks after visit 2. The planned interval between subsequent visits was 26 weeks. Therefore, at visit 4, a patient should have been on 4-aminopyridine-SR treatment for approximately one year.
as §2, §3

[5] = human, in vivo, po, 10 mg
[6] = Bioavailability and pharmacokinetics in healthy volunteers; settings: 10 mg oral solution
[7] = double-blind Non-Responders, year 1
[8] = double-blind Non-Responders, year 2
[9] = double-blind Responders, year 1
[10] = double-blind Responders, year 2
[11] = parent-study treated Timed Walk Non-Responders
[12] = parent-study treated Timed Walk Responders
[13] = placebo treated in parent study, year 1
[14] = placebo treated in parent study, year 2
[15] = placebo-treated in parent study

Nc1ccncc1 [4-aminopyridine]
double-blind average percent change from baseline in walking speed ([1]; average improvement): 24% | average increase in walking speed by time from last dose ([1]; dose interval 9-10 hrs): 25% | average increase in walking speed by time from last dose ([1]; dose interval 10-11 hrs): 24% | average increase in walking speed by time from last dose ([1]; dose interval 11-12 hrs): 20% | patients classified as Extension Timed Walk Responders ([2]; all patients): 15.7% | Extension Timed Walk Response rate within year [2, 7]: 11.1% | Extension Timed Walk Response rate within year [2, 8]: 5.2% | Extension Timed Walk Response rate within year ([2]; double-blind Non-Responders, year 3): 6.1% | Extension Timed Walk Response rate within year [2, 9]: 25.6% | Extension Timed Walk Response rate within year [2, 10]: 23.1% | Extension Timed Walk Response rate within year ([2]; double-blind Responders, year 3): 22.2% | patients classified as Extension Timed Walk Responders [2, 11]: 9.5% | patients classified as Extension Timed Walk Responders [2, 12]: 25.6% | Extension Timed Walk Response rate within year [2, 13]: 17.9% | Extension Timed Walk Response rate within year [2, 14]: 4.6% | Extension Timed Walk Response rate within year ([2]; placebo treated in parent study, year 3): 5.3% | patients classified as Extension Timed Walk Responders [2, 15]: 14.3% | decline in walking speed from the original double-blind baseline ([3]; Extension Timed Walk Non-Responders, end of the second year): approximately 8% | improvement in walking speed over the original baseline ([3]; Extension Timed Walk Responders, Visit 6): more than 20% | mean walking speed faster than double-blind baseline at each extension visit ([3]; Extension Timed Walk Responders, first year): more than 30% | patients classified as Extension Timed Walk Responders ([3]; all patients): 24.9% | Extension Timed Walk Response rate within year [3, 7]: 19.7% | Extension Timed Walk Response rate within year [3, 8]: 17.5% | Extension Timed Walk Response rate within year [3, 9]: 42.9% | Extension Timed Walk Response rate within year [3, 10]: 36.1% | patients classified as Extension Timed Walk Responders [3, 11]: 19.7% | patients classified as Extension Timed Walk Responders [3, 12]: 41.4% | Extension Timed Walk Response rate within year [3, 13]: 16.2% | Extension Timed Walk Response rate within year [3, 14]: 20.8% | patients classified as Extension Timed Walk Responders [3, 15]: 17.7% | patients classified as Extension Timed Walk Responders ([4]; all patients): 49.3% | patients classified as Extension Timed Walk Responders [4, 11]: 30.0% | patients classified as Extension Timed Walk Responders [4, 12]: 71.4% | patients classified as Extension Timed Walk Responders [4, 15]: 50.0% | time of Cmax after dose administration [5]: approximately 1.1 hours | Cmax [6]: 42.7 ng/mL
